This passage reports cytotoxicity results from ChEMBL document CHEMBL3507680, “University of Dundee, Gates Library screen for HepG2 cell viability”.

This data set is described as follows: Human HepG2 cell viability assay in 384 well format. As to conditions: HepG2 cells, read-out: Inhibition. More on the design: dose 125 nL, time 70.5 hour; cytotoxicity at 70.5 h: concentration not given beside the values. Format: toxicity, cell-based.
`CCc1nn(C)c2[nH]nc(NC(=O)c3cccnc3NC(C)C)c12`: the cytotoxicity at 70.5 h is -50.3%. With `O=C(C1CCOCC1)N1CCC2(CCN(Cc3nccs3)CC2)CC1` the figure was 9.62%. For the molecule `Cc1nc(-c2ccccc2)ccc1C(=O)N1CCN(CCO)CC1`, the cytotoxicity at 70.5 h was -1.89%. For `CN(Cc1csc(-c2ccccc2)n1)C(=O)CCn1ccccc1=O` the value was -0.921%; for `CCS(=O)(=O)N1C[C@@H](O)[C@H](N2CCc3ccccc3C2)C1`, -5.96%. With `O=C(NCC1CCOC1)N1CCN(Cc2ccc3c(c2)OCO3)CC1` (stereo not drawn) the figure was 3.28%; with `Cc1ccc(S(=O)(=O)NC(=O)CCc2ccccc2)cc1N(C)C`, -5.27%; with `CCCN1CCCn2nc(CNC(=O)CC3CCS(=O)(=O)C3)cc2C1` (stereo not drawn), -3.24%. With `COc1cc2c(cc1C(=O)N1CCCCC1c1ccccn1)CCC2` (stereo not drawn) the figure was -24%. Regarding `CN(C)C[C@@H]1CN(C(=O)c2cc(F)ccc2F)C[C@@H]1CO`, the cytotoxicity at 70.5 h was -5.47%. With `CC(=O)N[C@@H]1CN(C2CCN(c3cccc(Cl)c3)CC2)C[C@H]1C(C)C` the figure was -7.17%; with `O=C(Nc1ccc(-c2ccn[nH]2)cc1)C1CCCN(Cc2ccoc2)C1` (stereo not drawn), 1.09%. In the case of `Cc1nc(C)n(CC2CN(CCC(=O)N3CCCCC3)CCO2)n1` (stereo not drawn), the cytotoxicity at 70.5 h was -6.29%. With `COCCC1(C(=O)NCCc2nncn2C2CC2)CCC1` the figure was -13.5%; with `Cc1cc(N2CCOC(c3ccncn3)C2)ncn1` (stereo not drawn), -0.0886%; with `c1ccc(O[C@H]2COCCN(CC3CC3)C2)cc1`, -1.48%. For `CN(C)CC(=O)NC1CC(C)(C)Cc2nc(C(C)(C)C)ncc21` (stereo not drawn) the value was 46.7%; for `Cc1nc(C)n(CC2CCCN2Cc2cnc(C)s2)n1` (stereo not drawn), -8.97%. For `Cc1cc(CN2CCN(CC(O)c3cccc(F)c3)CC2)no1` (stereo not drawn) the value was -4.25%. Consider `Cc1ccc(C(=O)N(C)Cc2cc(Br)cs2)c(=O)[nH]1`, for which the cytotoxicity at 70.5 h is -11.5%. With `O=C(COc1ccc(F)cc1)N1CCCSCC1CN1CCOCC1` (stereo not drawn) the figure was 5.05%; with `CC(C)[C@H]1CN(CC2CCC2)C[C@@H]1NC(=O)c1ccc(=O)[nH]c1`, 3.69%; with `O=C(Cc1ccc(F)cc1)N1CCn2cc(Cn3cncn3)nc2C1`, -9.64%.

Turning to `CCOCCNC1(c2ccc(Cl)cc2)CCOCC1`, the cytotoxicity at 70.5 h amounted to 9.63%. Regarding `O=C(CO)N1CCC(F)(F)C2(CCN(c3ccccc3)C2)C1` (stereo not drawn), the cytotoxicity at 70.5 h stood at 1.4%.

Consider `COC(=O)c1cc(C(=O)N2CCC(C)CC2)n(-c2ccccc2)n1`, for which the cytotoxicity at 70.5 h is -6.41%. With `COCC(=O)N1CCC(c2cc(-c3ccc(N)nc3)cc(C)n2)CC1` the figure was 19.1%; with `O=C1CCCN1C1CCN(S(=O)(=O)CCOc2ccc(F)cc2)CC1`, 23.9%. Consider `CC(Cn1cccn1)NC(=O)N(C)Cc1ccsc1` (stereo not drawn), for which the cytotoxicity at 70.5 h was -16.6%. As to `c1csc(CN2Cc3nccn3CC(Cn3cncn3)C2)c1` (stereo not drawn), the cytotoxicity at 70.5 h came to 2.43%.

In the case of `COc1cccc(-n2c(C)cc(C(=O)NC(C)(C)C(N)=O)c2C)c1`, the cytotoxicity at 70.5 h is -15.2%. As for `CN(Cc1nccn1C)C1CCCN(Cc2noc(C3CC3)n2)C1` (stereo not drawn), the cytotoxicity at 70.5 h amounted to 15.8%. For `O=S(=O)(c1ccc(-c2nc3c([nH]2)CCNC3)cc1)N1CCCC1` the value was -11.8%; for `c1ncn(Cc2ccc(CNCc3ccc4c(c3)OCCO4)cc2)n1`, -13.3%; for `Cc1nc[nH]c1C(=O)N1CCCC2(CN(C)C(=O)O2)C1` (stereo not drawn), -0.146%. With `CCOCc1nc2c(c(N3CC=CC3)n1)CCN(CC1CC1)CC2` the figure was 9.81%; with `Cc1ncnc2c1CCN(C(=O)c1ccncc1)CC2`, 8.77%.

For `CC(C)c1cc(C(=O)NCC2CCCN(c3ncccn3)C2)n(C)n1` (stereo not drawn), the cytotoxicity at 70.5 h is -5.82%. For `O=c1c(NCCOCCO)c(N2CCN(c3ccccc3)CC2)c1=O` the value was -2.63%; for `Cc1nc(C(=O)N2CCCC(c3nc(C(C)C)cs3)C2)c[nH]1` (stereo not drawn), 12.6%; for `Cc1ccc(OCCC(=O)N2CCCC(n3nc(C)nc3C)C2)cc1` (stereo not drawn), -11.7%. For `COc1c(CNCc2cccc(Cn3ccnc3)c2)c(C)nn1C`, the cytotoxicity at 70.5 h is -1.14%.

`Cc1cc(-c2cncnc2)ccc1OCC(N)=O`: the cytotoxicity at 70.5 h worked out at 13.6%. For `COc1ncc(-c2nccn2-c2ccccc2CN2CCOCC2)cn1` the value was -7.32%; for `CS(=O)(=O)N1CC[C@@H]2OC(COCC(=O)N3CCCC3)CC[C@@H]21` (stereo partly drawn), -6.9%; for `N#Cc1cccnc1N1CCCC(CO)(CCOc2ccccc2)C1` (stereo not drawn), -7.83%.

As to `CN(C)c1ccc(C(=O)NCc2csc(Br)c2)cn1`, the cytotoxicity at 70.5 h is -11%.

With `O=c1cc2c(nn1CN1CCN(c3ccccc3)CC1)CCCC2`, the cytotoxicity at 70.5 h was -15%.

As for `Cc1cc(NCc2ccc(CS(N)(=O)=O)cc2)nc(C)n1`, the cytotoxicity at 70.5 h was -12.6%. For the molecule `COc1c(CNCc2ccccc2Cn2ccnc2)c(C)nn1C`, the cytotoxicity at 70.5 h was -0.234%. In the case of `CCOC(C)c1noc(CN2CCN(CC3CCCC3)CC2)n1` (stereo not drawn), the cytotoxicity at 70.5 h was -6.48%. In the case of `Cc1cccc(NS(=O)(=O)c2cc(C(=O)O)oc2C)c1Cl`, the cytotoxicity at 70.5 h was 1.03%. With `Cc1cc(C)cc(C(=O)N2CCN(C(=O)N(C)C)CC2(C)C)c1` the figure was -0.125%. With `Cc1cccc(CN2CCCn3c(nnc3Cn3cccn3)C2)n1` the figure was 10.9%.

With `CCCN(CCc1ccccc1)c1ncnc2oc(C)nc12`, the cytotoxicity at 70.5 h is -2.57%. As to `CC(C)C(=O)NCC(=O)N(C)C1CCCN(CCc2ccccc2)C1` (stereo not drawn), the cytotoxicity at 70.5 h is -5.89%. With `CCN(Cc1nc(COC)no1)Cc1cc2ccc(F)cc2[nH]c1=O` the figure was -12.1%; with `Cc1cnn(CC(=O)N2CCC3(CCC(=O)N(CC(C)O)C3)CC2)c1` (stereo not drawn), -5.26%; with `COCCOCCNC(=O)C(C)Oc1ccccc1C(F)(F)F` (stereo not drawn), -5.94%.

With `c1cc(CN2CC[C@@H]3[C@@H](CO[C@H]3CN3CCOCC3)C2)cs1`, the cytotoxicity at 70.5 h was -1.87%. For `COCCC1(C(=O)O)CCCN(C(=O)c2cc(C)oc2C)C1` (stereo not drawn) the value was -15.5%; for `CC1(C)Cc2ccccc2-c2nc(NCCCO)[nH]c(=O)c21`, -3.41%; for `O=C(c1cccnc1)N1CCCC(c2ncncc2-c2ccncc2)C1` (stereo not drawn), -5.25%. With `O=C1NC(c2ccccc2)=N[C@@]12CC[C@@H]1CN(CC3CC3)C[C@@H]12` the figure was -10.6%. Consider `CN(CC(=O)N1CCOCC(CO)C1)Cc1ccc(F)cc1` (stereo not drawn), for which the cytotoxicity at 70.5 h was -12.7%.

As to `CCCc1noc(C[S+]([O-])CC(=O)NCc2ccccc2)n1` (stereo not drawn), the cytotoxicity at 70.5 h turned out to be 15.8%. For `O=C(O)c1cc(/C=C/c2cccc3ccccc23)ncn1` the value was -7.2%; for `Cc1ccc(C(=O)NS(=O)(=O)c2ccccc2Cl)c(=O)[nH]1`, 9.73%; for `CSc1c[nH]nc1NS(=O)(=O)c1ccc(C)c(C)c1`, -2.13%. For `Cc1cc(N(C)C)nc(N2CCN(C(C)c3nc(C)no3)CC2)n1` (stereo not drawn) the value was 22.7%; for `Cc1noc(C)c1CNC(=O)Nc1ccc(N2CCSCC2)cc1`, -9.93%. With `Cc1cccc(C(C(=O)NCc2nc(-c3ncccn3)no2)N(C)C)c1` (stereo not drawn) the figure was -2.35%; with `COc1cccc(CN(C)C(C)c2ccco2)c1OCCn1ccnc1` (stereo not drawn), -6.31%; with `Cn1cnc2ccc(NC(=O)CCCn3cccn3)cc2c1=O`, -13.5%. With `CC(C)C(NC(=O)NCc1cccnc1N(C)C)c1cccs1` (stereo not drawn), the cytotoxicity at 70.5 h was -20.8%. For the molecule `COc1ccc(-c2nnc(CN3CCCC3Cn3cncn3)o2)cc1` (stereo not drawn), the cytotoxicity at 70.5 h stood at 15.3%. For `CC(NC(=O)NCc1ccoc1)c1ccc2c(c1)CC(=O)N2` (stereo not drawn) the value was -4.73%; for `O=C(Cc1cccc(F)c1)NCCCNC(=O)c1cccc(O)c1`, -2.95%. With `O=C(Nc1ccccc1)N1C(CO)[C@]2(O)CC[C@H]1CC2` (stereo partly drawn) the figure was 15%; with `CN(C)C(CNCc1nc(-c2ccsc2)no1)c1ccco1` (stereo not drawn), -16.8%. With `CCOCCCNC(=O)c1cc(OC)c2ccoc2c1` the figure was -1.75%. As for `Cc1cc(C)c(CN2CCCC23Cc2ccccc2CNC3=O)c(C)c1` (stereo not drawn), the cytotoxicity at 70.5 h is -9.48%. With `O=C(Cc1noc2ccccc12)N1CCC(Nc2cccnn2)CC1` the figure was -5.81%. For `CC(=O)c1ccc(N2CCC3(CCC(=O)N(CCCO)C3)CC2)nc1` the value was 3.25%; for `CCc1nc(C)c(CN2CCOC(Cc3cccc4ccccc34)C2)[nH]1` (stereo not drawn), -2.51%; for `CNc1nc(C2CCCN(C(=O)CNC(C)=O)C2)nc2c1CN(C)CC2` (stereo not drawn), 11.4%. With `CN(C)C(=O)CN1CCCC2(CCN(c3ccc(C#N)cn3)C2)C1` (stereo not drawn) the figure was 8.76%. With `Cc1nc(C)c(C(=O)N2CCCC(n3ccnc3C)C2)s1` (stereo not drawn), the cytotoxicity at 70.5 h was -3.06%. For `CN1C[C@@H](C(=O)N2CCOCC2)[C@@]2(CCc3ccccc3C(=O)N2)C1` the value was -1.75%; for `CC(C)C1SCC(=O)Nc2c1cnn2-c1ccc(Cl)cc1F` (stereo not drawn), 0.678%. With `c1ccc(-c2nnc(C3CCCN(CC4CCCCC4)C3)o2)nc1` (stereo not drawn) the figure was -7.93%; with `O=C(O)c1ccnc(SCc2ccccc2)c1`, 32.7%. Consider `O=C(CCNS(=O)(=O)c1ccc(F)cc1)NCc1ccoc1`, for which the cytotoxicity at 70.5 h was -9.41%.

Turning to `COC[C@@]12CCO[C@@H]1CCN(C(=O)Cc1ccc(C)cc1)C2`, the cytotoxicity at 70.5 h was 31.2%.

Consider `O=C(Nc1cnn(Cc2ccc(Cl)cc2)c1)N1CCCC1CO` (stereo not drawn), for which the cytotoxicity at 70.5 h is -7.38%. With `COCC(=O)Nc1ccc([C@@H](O)[C@H]2COCC(=O)N2CC(C)C)cc1` the figure was 8.86%; with `CCC(=O)N1CCCC1c1nccnc1Nc1nc(C)cc(C)n1` (stereo not drawn), -14%; with `COc1ccc(CN(CCC#N)CCN2CCOCC2)c(OC)c1`, -4.65%.
